Data published in patent US20040156869A1, “2-substituted quinazolin-4-ylamine analogues” (Neurogen Corporation, priority 2002, published 2004).

Molecular target: human capsaicin receptor (VR1) (Homo sapiens, UniProt Q8NER1)
Assay: Capsaicin receptor binding assay ([3H]RTX competition, VR1-transfected HEK293 membranes)

human capsaicin receptor (VR1), sequence (Q8NER1 whole entry): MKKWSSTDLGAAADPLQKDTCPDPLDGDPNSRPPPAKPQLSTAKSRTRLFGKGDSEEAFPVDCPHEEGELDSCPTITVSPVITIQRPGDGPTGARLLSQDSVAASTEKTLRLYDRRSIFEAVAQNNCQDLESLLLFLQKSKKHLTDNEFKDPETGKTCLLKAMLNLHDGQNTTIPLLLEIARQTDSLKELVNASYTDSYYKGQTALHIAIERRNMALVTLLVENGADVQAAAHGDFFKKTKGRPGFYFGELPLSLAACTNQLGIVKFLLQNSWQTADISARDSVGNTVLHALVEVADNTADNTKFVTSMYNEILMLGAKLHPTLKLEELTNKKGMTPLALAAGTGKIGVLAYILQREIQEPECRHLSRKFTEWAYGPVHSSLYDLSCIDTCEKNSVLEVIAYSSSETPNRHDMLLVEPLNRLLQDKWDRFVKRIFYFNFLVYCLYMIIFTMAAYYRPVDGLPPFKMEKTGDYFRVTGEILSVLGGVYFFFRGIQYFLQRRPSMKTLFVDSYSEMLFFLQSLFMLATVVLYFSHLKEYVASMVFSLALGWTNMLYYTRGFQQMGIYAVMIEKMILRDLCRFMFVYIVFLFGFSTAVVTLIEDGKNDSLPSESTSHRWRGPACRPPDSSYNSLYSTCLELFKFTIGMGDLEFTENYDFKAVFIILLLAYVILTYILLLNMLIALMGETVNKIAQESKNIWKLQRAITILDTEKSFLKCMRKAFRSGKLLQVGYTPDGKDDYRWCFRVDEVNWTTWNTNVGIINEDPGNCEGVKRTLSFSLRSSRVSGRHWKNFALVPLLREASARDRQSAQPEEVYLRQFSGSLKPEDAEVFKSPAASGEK

| Ki | Structure (SMILES) |
| --- | --- |
| < 1 µM | CC(C)S(=O)(=O)c1ccc(Nc2nc(CN3C[C@@H](C)O[C@H](C)C3)nc3cc(-c4ncccc4Cl)ccc23)cc1 [Compound 631, (R,R)-[7-(3-Chloro-pyridin-2-yl)-2-(2,6-dimethyl-morpholin-4-ylmethyl)-quinazolin-4-yl]-[4-(propane-2-sulfonyl)-phenyl]-amine] |
| < 1 µM | C[C@@H]1CN(Cc2nc(Nc3ccc(C(C)(C)C)nc3)c3ncc(-c4ncccc4Cl)cc3n2)C[C@H](C)O1 [Compound 632, (6-tert-Butyl-pyridin-3-yl)-[7-(3-chloro-pyridin-2-yl)-2-(2,6-dimethyl-morpholin-4-ylmethyl)-pyrido[3,2-d]pyrimidin-4-yl]-amine (cis)] |
| < 1 µM | C[C@@H]1CN(Cc2nc(Nc3ccc(C(C)(C)C)cc3)c3ncc(-c4ncccc4Cl)cc3n2)C[C@H](C)O1 [Compound 633, (4-tert-Butyl-phenyl)-[7-(3-chloro-pyridin-2-yl)-2-(2,6-dimethyl-morpholin-4-ylmethyl)-pyrido[3,2-d]pyrimidin-4-yl]-amine (cis)] |
| < 1 µM | CC1CN(Cc2nc(Nc3ccc(C(F)(F)F)cc3)c3ccc(-c4ncccc4Cl)cc3n2)CC(C)N1 (stereo not drawn) [Compound 634, [7-(3-Chloro-pyridin-2-yl)-2-(3,5-dimethyl-piperazin-1-ylmethyl)-quinazolin-4-yl]-(4-trifluoromethyl-phenyl)-amine] |
| < 1 µM | Cc1cccnc1-c1ccc2c(Nc3ccc(C(C)(C)C)cc3)nc(CN3C[C@@H](C)O[C@@H](C)C3)nc2c1 [Compound 635, (4-tert-Butyl-phenyl)-[2-(2,6-dimethyl-morpholin-4-ylmethyl)-7-(3-methyl-pyridin-2-yl)-quinazolin-4-yl]-amine (cis)] |
| < 1 µM | C[C@@H]1CN(Cc2nc(Nc3ccc(C(C)(C)C)cc3)c3ccc(-c4ccccn4)cc3n2)C[C@H](C)O1 [Compound 636, (4-tert-Butyl-phenyl)-[2-(2,6-dimethyl-morpholin-4-ylmethyl)-7-pyridin-2-yl-quinazolin-4-yl]-amine (cis)] |
| < 1 µM | Cc1cccc(-c2ccc3c(Nc4ccc(C(C)(C)C)cc4)nc(CN4C[C@@H](C)O[C@@H](C)C4)nc3c2)n1 [Compound 637, (4-tert-Butyl-phenyl)-[2-(2,6-dimethyl-morpholin-4-ylmethyl)-7-(6-methyl-pyridin-2-yl)-quinazolin-4-yl]amine (cis)] |
| < 1 µM | COc1ccccc1-c1ccc2c(Nc3ccc(C(F)(F)F)cc3)nc(CN3C[C@@H](C)O[C@@H](C)C3)nc2c1 [Compound 638, [2-(2,6-Dimethyl-morpholin-4-ylmethyl)-7-(2-methoxy-phenyl)-quinazolin-4-yl]-(4-trifluoromethyl-phenyl)-amine (cis)] |
| < 1 µM | CC(=O)c1ccccc1-c1ccc2c(Nc3ccc(C(F)(F)F)cc3)nc(CN3C[C@@H](C)O[C@@H](C)C3)nc2c1 [Compound 639, 1-{2-[2-(2,6-Dimethyl-morpholin-4-ylmethyl)-4-(4-trifluoromethyl-phenylamino)-quinazolin-7-yl]-phenyl}-ethanone (cis)] |
| < 1 µM | CC(C)c1ccc(Nc2nc(CN3C[C@H](C)O[C@@H](C)C3)nc3cc(-c4ncccc4C(F)(F)F)ccc23)cc1 [Compound 640, (S,S)-[2-(2,6-Dimethyl-morpholin-4-ylmethyl)-7-(3-trifluoromethyl-pyridin-2-yl)-quinazolin-4-yl]-(4-isopropyl-phenyl)-amine] |
| < 1 µM | CCc1ccc(Nc2nc(CN3C[C@H](C)O[C@@H](C)C3)nc3cc(-c4ncccc4C(F)(F)F)ccc23)cc1 [Compound 641, (S,S)-[2-(2,6-Dimethyl-morpholin-4-ylmethyl)-7-(3-trifluoromethyl-pyridin-2-yl)-quinazolin-4-yl]-(4-ethyl-phenyl)-amine] |
| < 1 µM | C[C@H]1CN(Cc2nc(Nc3ccc(Cl)cc3)c3ccc(-c4ncccc4C(F)(F)F)cc3n2)C[C@H](C)O1 [Compound 642, (S,S)-(4-Chloro-phenyl)-[2-(2,6-dimethyl-morpholin-4-ylmethyl)-7-(3-trifluoromethyl-pyridin-2-yl)-quinazolin-4-yIl]amine] |
| < 1 µM | CC(C)S(=O)(=O)c1ccc(Nc2nc(CN3C[C@H](C)O[C@@H](C)C3)nc3cc(-c4ncccc4C(F)(F)F)ccc23)cc1 [Compound 643, (S,S)-[2-(2,6-Dimethyl-morpholin-4-ylmethyl)-7-(3-trifluoromethyl-pyridin-2-yl)-quinazolin-4-yl]-[4-(propane-2-sulfonyl)-phenyl]-amine] |
| < 1 µM | C[C@H]1CN(Cc2nc(Nc3ccc(Cl)cc3)c3ccc(-c4ncccc4Cl)cc3n2)C[C@H](C)O1 [Compound 644, (S,S)-(4-Chloro-phenyl)-[7-(3-chloro-pyridin-2-yl)-2-(2,6-dimethyl-morpholin-4-ylmethyl)-quinazolin-4-yl]-amine] |
| < 1 µM | CC(C)S(=O)(=O)c1ccc(Nc2nc(CN3C[C@H](C)O[C@@H](C)C3)nc3cc(-c4ncccc4Cl)ccc23)cc1 [Compound 645, (S,S)-[7-(3-Chloro-pyridin-2-yl)-2-(2,6-dimethyl-morpholin-4-ylmethyl)-quinazolin-4-yl]-[4-(propane-2-sulfonyl)-phenyl]-amine] |
| < 1 µM | CC(C)S(=O)(=O)c1ccc(Nc2nc(CN3CCO[C@@H](C)C3)nc3cc(-c4ncccc4Cl)ccc23)cc1 [Compound 646, (S)-[7-(3-Chloro-pyridin-2-yl)-2-(2-methyl-morpholin-4-ylmethyl)-quinazolin-4-yl]-[4-(propane-2-sulfonyl)-phenyl]-amine] |
| < 1 µM | C[C@H]1CN(Cc2nc(Nc3ccc(C(C)(C)C)cc3)c3ccc(-c4ncccc4Cl)cc3n2)CCO1 [Compound 647, (S)-(4-tert-Butyl-phenyl)-[7-(3-chloro-pyridin-2-yl)-2-(2-methyl-morpholin-4-ylmethyl)-quinazolin-4-yl]-amine] |
| < 1 µM | CC(C)c1ccc(Nc2nc(CN3CCO[C@@H](C)C3)nc3cc(-c4ncccc4Cl)ccc23)cc1 [Compound 648, (S)-[7-(3-Chloro-pyridin-2-yl)-2-(2-methyl-morpholin-4-ylmethyl)-quinazolin-4-yl]-(4-isopropyl-phenyl)-amine] |
| < 1 µM | C[C@H]1CN(Cc2nc(Nc3ccc(C(C)(C)C)cc3)c3ccc(-c4ncccc4Cl)cc3n2)C[C@H](C)O1 [Compound 649, (S,S)-(4-tert-Butyl-phenyl)-[7-(3-chloro-pyridin-2-yl)-2-(2,6-dimethyl-morpholin-4-ylmethyl)-quinazolin-4-yl]-amine] |
| < 1 µM | CC(C)c1ccc(Nc2nc(CN3C[C@H](C)O[C@@H](C)C3)nc3cc(-c4ncccc4Cl)ccc23)cc1 [Compound 650, (S,S)-[7-(3-Chloro-pyridin-2-yl)-2-(2,6-dimethyl-morpholin-4-ylmethyl)-quinazolin-4-yl]-(4-isopropyl-phenyl)-amine] |
| < 1 µM | CCc1ccc(Nc2nc(CN3C[C@H](C)O[C@@H](C)C3)nc3cc(-c4ncccc4Cl)ccc23)cc1 [Compound 651, (S,S)-[7-(3-Chloro-pyridin-2-yl)-2-(2,6-dimethyl-morpholin-4-ylmethyl)-quinazolin-4-yl]-(4-ethyl-phenyl)-amine] |
| < 1 µM | CC(C)c1ccc(Nc2nc(CN3C[C@@H](C)O[C@H](C)C3)nc3cc(-c4ncccc4C(F)(F)F)ccc23)cc1 [Compound 652, (R,R)-[2-(2,6-Dimethyl-morpholin-4-ylmethyl)-7-(3-trifluoromethyl-pyridin-2-yl)-quinazolin-4-yl]-(4-isopropyl-phenyl)-amine] |
| < 1 µM | C[C@@H]1CN(Cc2nc(Nc3ccc(Cl)cc3)c3ccc(-c4ncccc4C(F)(F)F)cc3n2)C[C@@H](C)O1 [Compound 654, (R,R)-(4-Chloro-phenyl)-[2-(2,6-dimethyl-morpholin-4-ylmethyl)-7-(3-trifluoromethyl-pyridin-2-yl)-quinazolin-4-yl]-amine] |
| < 1 µM | CC(C)S(=O)(=O)c1ccc(Nc2nc(CN3C[C@@H](C)O[C@H](C)C3)nc3cc(-c4ncccc4C(F)(F)F)ccc23)cc1 [Compound 655, (R,R)-[2-(2,6-Dimethyl-morpholin-4-ylmethyl)-7-(3-trifluoromethyl-pyridin-2-yl)-quinazolin-4-yl]-[4-(propane-2-sulfonyl)-phenyl]-amine] |
| < 1 µM | O=C(OCc1ccccc1)N1CCC[C@H]1c1nc(Nc2ccc(C(F)(F)F)cc2)c2ccc(-c3ncccc3C(F)(F)F)cc2n1 [Compound 656, (S)-2-[4-(4-Trifluoromethyl-phenylamino)-7-(3-trifluoromethyl-pyridin-2-yl)-quinazolin-2-yl]-pyrrolidine-1-carboxylic acid benzyl ester] |
| < 1 µM | C[C@@H]1CN(Cc2nc(Nc3ccc(C(F)(F)F)cc3)c3ncc(-c4ncccc4C(F)(F)F)cc3n2)C[C@@H](C)O1 [Compound 657, (R,R)-[2-(2,6-Dimethyl-morpholin-4-ylmethyl)-7-(3-trifluoromethyl-pyridin-2-yl)-pyrido[3,2-d]pyrimidin-4-yl]-(4-trifluoromethyl-phenyl)-amine] |
| < 1 µM | C[C@H]1CN(Cc2nc(Nc3ccc(C(F)(F)F)cc3)c3ncc(-c4ncccc4C(F)(F)F)cc3n2)C[C@H](C)O1 [Compound 658, (S,S)-[2-(2,6-Dimethyl-morpholin-4-ylmethyl)-7-(3-trifluoromethyl-pyridin-2-yl)-pyrido[3,2-d]pyrimidin-4-yl]-(4-trifluoromethyl-phenyl)-amine] |
| < 1 µM | FC(F)(F)c1ccc(Nc2nc(CN3CCCCCC3)nc3cc(-c4ncccc4C(F)(F)F)cnc23)cc1 [Compound 659, [2-Azepan-1-ylmethyl-7-(3-trifluoromethyl-pyridin-2-yl)-pyrido[3,2-d]pyrimidin-4-yl]-(4-trifluoromethyl-phenyl)-amine] |
| < 1 µM | FC(F)(F)c1ccc(Nc2nc(CN3CCSCC3)nc3cc(-c4ncccc4C(F)(F)F)cnc23)cc1 [Compound 660, [2-Thiomorpholin-4-ylmethyl-7-(3-trifluoromethyl-pyridin-2-yl)-pyrido[3,2-d]pyrimidin-4-yl]-(4-trifluoromethyl-phenyl)-amine] |
| < 1 µM | CC1(C)CCCN(Cc2nc(Nc3ccc(C(F)(F)F)cc3)c3ncc(-c4ncccc4C(F)(F)F)cc3n2)C1 [Compound 661, [2-(3,3-Dimethyl-piperidin-1-ylmethyl)-7-(3-trifluoromethyl-pyridin-2-yl)-pyrido[3,2-d]pyrimidin-4-yl]-(4-trifluoromethyl-phenyl)-amine] |
